Experimental findings from US20170007615A1, “Antibacterial Compounds” (priority 2014, published 2017) are described below.

Values after ≈ are worked out from the molar mass of the structure shown.

The subject of experiment [1] is E. coli (ATCC 25922). As to conditions: for MIC of Compound (μg/ml) in the presence of PMBN (128 μg/ml): Table 1, (b) No effect.
The subject of experiment [2] is A. baumannii (ATCC 19606). As to conditions: Table 4.
Experiment [3] relates to E. coli (ATCC 25922). The experiment can be described thus: microbe, parasite or virus in culture. As to conditions: Escherichia coli, ATCC25922, read-out: MIC Compound alone, Table 1.
In experiment [4] the test system is A. baumannii (ATCC 19606). The experiment can be described thus: microbe, parasite or virus in culture. As to conditions: Acinetobacter baumannii, ATCC19606, read-out: MIC Compound alone.
For experiment [5], the system named is S. aureus (ATCC 29213). In words: Antibacterial activity (MIC), Gram-positive type strain. It is filed as cell-based, Staphylococcus aureus. As to conditions: Table 13; for MIC: Staphylococcus aureus, ATCC29213.
In experiment [6] the test system is E. faecalis (ATCC 29212). The experiment is described as above. Format: cell-based, Enteroccocus faecalis. As to conditions: Table 13; for MIC: Enterococcus faecalis, ATCC29212.
Experiment [7] concerns H. influenzae (ATCC 49247). The experiment can be described thus: Antibacterial activity (MIC), Gram-negative type strain. Format: cell-based, Haemophilus influenzae. As to conditions: Table 13; for MIC: Haemophilus influenzae, ATCC49247.
Experiment [8] has as its system N. gonorrheae (ATCC 49226). Described as above. Format: cell-based, Neisseria gonorrhoeae. As to conditions: Table 13; for MIC: Neisseria gonorrhoeae, ATCC49226.
Experiment [9] relates to E. coli (NDM-1; CTX-M15). The experiment can be described thus: Septicaemia infection model, survival. As to conditions: two doses, 100 mg/kg IV alone.
Experiment [10] relates to B. cepacia (ATCC 25416). The experiment can be described thus: Antibacterial activity (MIC), alone and with colistin. Format: cell-based, Burkholderia cepacia. As to conditions: Table 8; (a) No measurable antibacterial activity.
The test system of experiment [11] is K. pneumonia colistin-resistant strains. The experiment can be described thus: microbe, parasite or virus in culture. As to conditions: K. pneumonia strains raised by selection with 2 or 4 μg/mL of colistin on MH agar. It is filed as cell-based.
In experiment [12] the test system is E. coli colistin-resistant strains. The experiment can be described thus: microbe, parasite or virus in culture. It is filed as cell-based. As to conditions: E. coli strains raised by selection with 2 or 4 μg/mL of colistin on MH agar.
In experiment [13] the test system is A. baumannii colistin-resistant strains. In words: microbe, parasite or virus in culture. It is filed as cell-based. As to conditions: A. baumannii strains raised by selection with 2 or 4 μg/mL of colistin on MH agar.
Experiment [14] deals with E. cloaceae (ATCC 13047). As to conditions: Table 7; (a) No measurable antibacterial activity.

Take `CCNC(=O)Nc1nc2cc(-c3cnc(C(C)(O)CO)nc3)cc(-c3ncc(C)cn3)c2s1` (stereo not drawn) [Compound A-8, 1-[5-[2-(1,2-Dihydroxy-1-methyl-ethyl)pyrimidin-5-yl]-7-(5-methylpyrimidin-2-yl)-1,3-benzothiazol-2-yl]-3-ethyl-urea]: the “MIC of Compound (μg/ml) in the presence of PMBN (128 μg/ml)” value (“MIC of Compound (μg/ml) … (128 μg/ml)” for short) is 0.06 µg/mL in [1] and 0.25 µg/mL in [2]. Further, the MIC in experiment [3] stood at 4 µg/mL (≈ 8.59 µM); in [4], 2 µg/mL (≈ 4.3 µM).
As to `CCNC(=O)Nc1nc2cc(-c3cnc(NS(=O)(=O)c4ccccc4C(=O)O)nc3)cc(-c3ccccn3)c2s1` [Compound A-10, 2-[[5-[2-(Ethylcarbamoylamino)-7-(2-pyridyl)-1,3-benzothiazol-5-yl]pyrimidin-2-yl]sulfamoyl]benzoic acid], the MIC is 2 µg/mL (≈ 3.47 µM) in experiment [5]; 0.5 µg/mL (≈ 0.869 µM) in experiment [6]; 4 µg/mL (≈ 6.95 µM) in [7]; 0.25 µg/mL (≈ 0.434 µM) in [8]; above 64 µg/mL in experiment [3]. Further, the “MIC of Compound (μg/ml) … (128 μg/ml)” value in experiment [1] is 4 µg/mL.
With `CCNC(=O)Nc1nc2cc(-c3cnc(NS(=O)(=O)N4CCCC4)nc3)cc(-c3ccc(C)cn3)c2s1` [Compound A-11, 1-Ethyl-3-[7-(5-methyl-2-pyridyl)-5-[2-(pyrrolidin-1-ylsulfonylamino)pyrimidin-5-yl]-1,3-benzothiazol-2-yl]urea], the MIC was 0.004 µg/mL (≈ 0.00743 µM) in experiment [5]; at most 0.008 µg/mL in experiment [6]; 0.06 µg/mL (≈ 0.111 µM) in experiment [7]; 0.015 µg/mL (≈ 0.0278 µM) in experiment [8]; 2 µg/mL (≈ 3.71 µM) in experiment [3]. In addition, the “MIC of Compound (μg/ml) … (128 μg/ml)” value in experiment [1] came out at 0.015 µg/mL.
Take `CCCS(=O)(=O)Nc1ncc(-c2cc(-c3ccc(C)cn3)c3sc(NC(=O)NCC)nc3c2)cn1` [Compound A-12, 1-Ethyl-3-[7-(5-methyl-2-pyridyl)-5-[2-(propylsulfonylamino)pyrimidin-5-yl]-1,3-benzothiazol-2-yl]urea]: the MIC is at most 0.002 µg/mL in experiment [5]; at most 0.008 µg/mL in experiment [6]; 0.015 µg/mL (≈ 0.0293 µM) in [7]; at most 0.008 µg/mL in experiment [8]; 2 µg/mL (≈ 3.91 µM) in experiment [3]. The “MIC of Compound (μg/ml) … (128 μg/ml)” value in experiment [1] turned out to be 0.008 µg/mL.
Regarding `CCNC(=O)Nc1nc2cc(-c3cnc(NS(=O)(=O)C(C)(C)CO)nc3)cc(-c3ccc(C)cn3)c2s1` [Compound A-14, 1-Ethyl-3-[5-[2-[(2-hydroxy-1,1-dimethyl-ethyl)sulfonylamino]pyrimidin-5-yl]-7-(5-methyl-2-pyridyl)-1,3-benzothiazol-2-yl]urea], the MIC is 0.03 µg/mL (≈ 0.0554 µM) in experiment [5]; at most 0.008 µg/mL in experiment [6]; 0.015 µg/mL (≈ 0.0277 µM) in experiment [7]; 0.015 µg/mL (≈ 0.0277 µM) in experiment [8]; 4 µg/mL (≈ 7.38 µM) in experiment [3]. Further, the “MIC of Compound (μg/ml) … (128 μg/ml)” value in [1] turned out to be 0.03 µg/mL.
As for `CCNC(=O)Nc1nc2cc(-c3cnc(NS(=O)(=O)N(C)CCO)nc3)cc(-c3ccc(C)cn3)c2s1` [Compound A-15, 1-Ethyl-3-[5-[2-[[2-hydroxyethyl(methyl)sulfamoyl]amino]pyrimidin-5-yl]-7-(5-methyl-2-pyridyl)-1,3-benzothiazol-2-yl]urea], the MIC in experiment [5] was 0.12 µg/mL (≈ 0.221 µM); in experiment [6], 0.015 µg/mL (≈ 0.0276 µM); in experiment [7], 0.03 µg/mL (≈ 0.0553 µM); in [8], at most 0.008 µg/mL; in [3], 4 µg/mL (≈ 7.37 µM). In addition, the “MIC of Compound (μg/ml) … (128 μg/ml)” value in experiment [1] was 0.03 µg/mL.
As for `CCNC(=O)Nc1nc2cc(-c3cnc(NS(=O)(=O)C4CCCC4)nc3)cc(-c3ccc(C)cn3)c2s1` [Compound A-21, 1-[5-[2-(cyclopentylsulfonylamino)pyrimidin-5-yl]-7-(5-methyl-2-pyridyl)-1,3-benzothiazol-2-yl]-3-ethyl-urea], the MIC in [5] is at most 0.002 µg/mL; in experiment [6], at most 0.008 µg/mL; in [7], 0.03 µg/mL (≈ 0.0558 µM); in experiment [8], at most 0.008 µg/mL; in experiment [4], 1 µg/mL (≈ 1.86 µM). Moreover, the “MIC of Compound (μg/ml) … (128 μg/ml)” value in [2] turned out to be 0.03 µg/mL.
As for `CCNC(=O)Nc1nc2cc(-c3cnc(NS(=O)(=O)N4CC[C@@H](N(C)C)C4)nc3)cc(-c3ccc(C)cn3)c2s1` [Compound A-57, (R)-3-(dimethylamino)-N-(5-(2-(3-ethylureido)-7-(5-methylpyridin-2-yl)benzo[d]thiazol-5-yl)pyrimidin-2-yl)pyrrolidine-1-sulfonamide], the MIC came out at 0.25 µg/mL (≈ 0.43 µM) in [5], 0.03 µg/mL (≈ 0.0516 µM) in [6], 0.5 µg/mL (≈ 0.86 µM) in experiment [7] and 0.12 µg/mL (≈ 0.206 µM) in experiment [8].
For `CCNC(=O)Nc1nc2cc(-c3cnc(NS(=O)(=O)C4CCN(C(C)=O)C4)nc3)cc(-c3ccc(C)cn3)c2s1` (stereo not drawn) [Compound A-58, 1-acetyl-N-(5-(2-(3-ethylureido)-7-(5-methylpyridin-2-yl)benzo[d]thiazol-5-yl)pyrimidin-2-yl)pyrrolidine-3-sulfonamide] the same measures were 2 µg/mL (≈ 3.44 µM), 0.25 µg/mL (≈ 0.431 µM), 1 µg/mL (≈ 1.72 µM) and 0.03 µg/mL (≈ 0.0517 µM).
For the molecule `CCNC(=O)Nc1nc2cc(-c3cnc(NS(=O)(=O)N4CC[C@@H](O)C4)nc3)cc(-c3ccc(C)cn3)c2s1` [Compound A-59, (R)—N-(5-(2-(3-ethylureido)-7-(5-methylpyridin-2-yl)benzo[d]thiazol-5-yl)pyrimidin-2-yl)-3-hydroxypyrrolidine-1-sulfonamide], the MIC is 0.12 µg/mL (≈ 0.216 µM) in experiment [5], 0.015 µg/mL (≈ 0.027 µM) in [6], 0.03 µg/mL (≈ 0.0541 µM) in [7] and 0.015 µg/mL (≈ 0.027 µM) in [8].
In the case of `CCNC(=O)Nc1nc2cc(-c3cnc(NS(=O)(=O)N4CC[C@H](O)C4)nc3)cc(-c3ccc(C)cn3)c2s1` [Compound A-60, (S)—N-(5-(2-(3-ethylureido)-7-(5-methylpyridin-2-yl)benzo[d]thiazol-5-yl)pyrimidin-2-yl)-3-hydroxypyrrolidine-1-sulfonamide], the MIC was 0.12 µg/mL (≈ 0.216 µM) in experiment [5], 0.06 µg/mL (≈ 0.108 µM) in [6], 0.03 µg/mL (≈ 0.0541 µM) in experiment [7] and at most 0.008 µg/mL in [8].
For `CCNC(=O)Nc1nc2cc(-c3cnc(NS(=O)(=O)C(C)(C)C)nc3)c(F)cc2s1` [Compound A-61, N-(5-(2-(3-ethylureido)-6-fluorobenzo[d]thiazol-5-yl)pyrimidin-2-yl)-2-methylpropane-2-sulfonamide] the same measures were 0.06 µg/mL (≈ 0.133 µM), 0.06 µg/mL (≈ 0.133 µM), 0.12 µg/mL (≈ 0.265 µM) and 0.25 µg/mL (≈ 0.552 µM).
Take `CCNC(=O)Nc1nc2cc(-c3ccn(C)c(=O)c3)cc(-c3ccccn3)c2s1` [Example 51 (WO2007/148093)]: the “MIC of Compound (μg/ml) … (128 μg/ml)” value in experiment [1] was determined as 0.06 µg/mL; in experiment [2] it was 0.5 µg/mL. The MIC in [3] is 16 µg/mL (≈ 39.5 µM); in experiment [4], 4 µg/mL (≈ 9.86 µM).
As to `CCNC(=O)Nc1nc2cc(-c3cnc([C@@H](C)OP(=O)(O)O)nc3)cc(-c3ccccn3)c2s1` [Example 152 of WO2013/138860, [(1R)-1-[5-[2-(ethylcarbamoylamino)-7-(2-pyridyl)-1,3-benzothiazol-5-yl]pyrimidin-2-yl]ethyl] dihydrogen phosphate], the “survival at the end of 5 days” value in experiment [9] is “No mice survived”.
As to “N-(5-(2-(3-ethylureido)-7-(5-methylpyridin-2-yl)benzo[d]thiazol-5-yl)pyrimidin-2-yl)-N-methylmethanesulfonamide [Compound A-29]”, the “MIC vs. S. aureus (ATCC 29213)” value in [5] was 0.25 µg/mL. In addition, in experiment [6], the “MIC vs. E. faecalis (ATCC 29212)” value was 0.06 µg/mL. Further, the “MIC vs. H. influenzae (ATCC 49247)” value in experiment [7] was determined as 2 µg/mL. In addition, in experiment [8], the “MIC vs. N. gonorrheae (ATCC 49226)” value is 0.25 µg/mL.
In the case of “N-(5-(2-(3-ethylureido)-7-(pyridin-2-yl)benzo[d]thiazol-5-yl)pyrimidin-2-yl)morpholine-4-sulfonamide [Compound A-43]”, the “MIC vs. S. aureus (ATCC 29213)” value in experiment [5] amounted to 0.12 µg/mL. The “MIC vs. E. faecalis (ATCC 29212)” value in experiment [6] is on record as “<=0.008 μg/ml”. The “MIC vs. H. influenzae (ATCC 49247)” value in experiment [7] was 0.03 µg/mL. Besides, the “MIC vs. N. gonorrheae (ATCC 49226)” value in experiment [8] was “<=0.008 μg/ml”.
In the case of colistin [reference compound], the MIC colistin alone in experiment [10] was >64^(a) μg/ml; in experiment [1] (Table 2) it was 2 µg/mL; in [14], >64^(a) μg/ml. In addition, the “MIC (colistin)” value in [11], in experiment [12] and in experiment [13] was “^(a)Raised by selection with 2 or 4 μg/mL of colistin on MH agar: MIC (colistin) = 16-32 μg/mL” each time. Besides, in experiment [1] (Table 12), the “MIC Compound alone” value amounted to 4 µg/mL. Further, in experiment [1] (Table 12, (b) No significant effect), the “MIC of Compound (μg/ml) in the presence of PMBN (32 μg/ml)” value is on record as 4^(b) μg/ml.
